In ChEMBL document CHEMBL1201862, “PubChem BioAssay data set” (2004):
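Cells were grown in 96-well plates and exposed to each compound for 48 hours at five concentrations; endpoints were interpolated linearly between bracketing concentrations, or set to the highest concentration if not reached. GI50 = concentration required for 50% inhibition of growth.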 Active and inactive are the calls of the source. Cut-off read from the data, not from the text of the source: active = GI50 up to about 1.1 µM and inactive = higher.

Tests used:
Assay in all cases: NCI tumour cell line growth inhibition, 48 h
NCI-H522 = system: NCI-H522
MCF7 = system: MCF7
UACC-62 = system: UACC-62
ACHN = system: ACHN
SF-295 = system: SF-295
CCRF-CEM = system: CCRF-CEM
U-251 = system: U-251
786-0 = system: 786-0
SK-OV-3 = system: SK-OV-3
OVCAR-8 = system: OVCAR-8
IGROV-1 = system: IGROV-1
SN12C = system: SN12C
HOP-62 = system: HOP-62
RPMI-8226 = system: RPMI-8226
OVCAR-3 = system: OVCAR-3
HOP-92 = system: HOP-92
HT-29 = system: HT-29
COLO 205 = system: COLO 205
SNB-19 = system: SNB-19
TK-10 = system: TK-10

Compound | GI50 (NCI-H522) | GI50 (MCF7) | GI50 (UACC-62) | GI50 (ACHN) | GI50 (SF-295) | GI50 (CCRF-CEM) | GI50 (U-251) | GI50 (786-0) | GI50 (SK-OV-3) | GI50 (OVCAR-8) | GI50 (IGROV-1) | GI50 (SN12C) | GI50 (HOP-62) | GI50 (RPMI-8226) | GI50 (OVCAR-3) | GI50 (HOP-92) | GI50 (HT-29) | GI50 (COLO 205) | GI50 (SNB-19) | GI50 (TK-10)
COC(=O)Cc1cc(O)c(C/C=C(\C)CC/C=C(\C)C(O)C(=O)C=C(C)C)cc1O (stereo not drawn) | 21.1 µM (inactive) | 32.1 µM (inactive) | 19.9 µM (inactive) | 24.9 µM (inactive) | 24.2 µM (inactive) | 2.93 µM (inactive) | 18.7 µM (inactive) | 38.6 µM (inactive) | 29.7 µM (inactive) | 23.2 µM (inactive) | 23.3 µM (inactive) | 22.4 µM (inactive) | 19.6 µM (inactive) | 26.7 µM (inactive) | 19.4 µM (inactive) | 20.4 µM (inactive) | 27.4 µM (inactive) | 24.8 µM (inactive) | 32 µM (inactive) | 
CC1(C)CC23C4COC(=O)C2CCC1C3CC4=O (stereo not drawn) | 3.32 µM (inactive) | 19.5 µM (inactive) | 10.5 µM (inactive) |  | 19.8 µM (inactive) | 2.37 µM (inactive) | 20.7 µM (inactive) |  | 39.3 µM (inactive) | 10 µM (inactive) | 21.9 µM (inactive) | 15.8 µM (inactive) | 24.4 µM (inactive) | 5.28 µM (inactive) | 12.5 µM (inactive) | 8.26 µM (inactive) | 22.9 µM (inactive) | 15.6 µM (inactive) | 28.3 µM (inactive) | 
COc1ccccc1-c1cc(O)c2c(C)cc(C)nc2n1 | 43.7 µM (inactive) | 46.8 µM (inactive) | 71.9 µM (inactive) | 46.3 µM (inactive) |  | 47.9 µM (inactive) |  |  | > 100 µM (inactive) | 90.2 µM (inactive) | 30.5 µM (inactive) | 70.1 µM (inactive) | > 100 µM (inactive) | 38.4 µM (inactive) |  | 31.8 µM (inactive) | 56.8 µM (inactive) | 36.1 µM (inactive) | 73.3 µM (inactive) | > 100 µM (inactive)
CCCCSCC(NC(=O)/C=C/c1c(C)[nH]c(=O)[nH]c1=O)C(=O)OC (stereo not drawn) | 14.9 µM (inactive) | 15.6 µM (inactive) | 51.9 µM (inactive) |  | 101 µM (inactive) | 20 µM (inactive) | 16.6 µM (inactive) |  | 45.4 µM (inactive) | 37.9 µM (inactive) | 84.5 µM (inactive) | 37.8 µM (inactive) | 70.5 µM (inactive) | 104 µM (inactive) | 13.2 µM (inactive) | 36.1 µM (inactive) | 102 µM (inactive) | 36.5 µM (inactive) | 29 µM (inactive) | 
CC(C)C1=CC23CCC4C(C)(C(=O)O)CCCC4(C)C2CC1C1C(=O)N(c2ccc(Cc4ccc(N5C(=O)C6C7CC8C9(C)CCCC(C)(C(=O)O)C9CCC8(C=C7C(C)C)C6C5=O)cc4)cc2)C(=O)C13 (stereo not drawn) | 8.18 µM (inactive) | 5.13 µM (inactive) | 11 µM (inactive) | 5.41 µM (inactive) |  | 5.41 µM (inactive) | 3.94 µM (inactive) | 10.9 µM (inactive) |  | 5.26 µM (inactive) |  | 10.1 µM (inactive) | 11.6 µM (inactive) | 9.14 µM (inactive) | 10.7 µM (inactive) | 20.1 µM (inactive) | 3.17 µM (inactive) | 7.06 µM (inactive) | 5.85 µM (inactive) | 15.6 µM (inactive)
O=NN(CCF)C(=O)NC1CCSCC1 | > 100 µM (inactive) | > 100 µM (inactive) | > 100 µM (inactive) |  | > 100 µM (inactive) | > 100 µM (inactive) | > 100 µM (inactive) |  | > 100 µM (inactive) | > 100 µM (inactive) | > 100 µM (inactive) | > 100 µM (inactive) | 1 µM (active) | > 100 µM (inactive) | > 100 µM (inactive) | > 100 µM (inactive) | > 100 µM (inactive) | > 100 µM (inactive) | > 100 µM (inactive) | 
CN(C)c1nc2sc3c(c2c(=O)o1)CCCC3 | 25.4 µM (inactive) | 48.3 µM (inactive) | 41.8 µM (inactive) | 34.1 µM (inactive) | 31.6 µM (inactive) | 39.4 µM (inactive) | 32.7 µM (inactive) | 45.4 µM (inactive) | 31.6 µM (inactive) | 31.8 µM (inactive) | 72.8 µM (inactive) | 36.9 µM (inactive) | 25.6 µM (inactive) | 35.8 µM (inactive) |  | 36.9 µM (inactive) | 21 µM (inactive) | 23.6 µM (inactive) | 25.6 µM (inactive) | > 100 µM (inactive)
Cc1ccc2c(c1)/C(=N/Nc1ccccc1[N+](=O)[O-])C(=O)N2 | 2.31 µM (inactive) | 12 µM (inactive) | 35.5 µM (inactive) |  | 14.5 µM (inactive) | 87.1 µM (inactive) | 4.07 µM (inactive) | 2.11 µM (inactive) | 4.68 µM (inactive) | 3.45 µM (inactive) | 1.68 µM (inactive) | 3.82 µM (inactive) | 2.82 µM (inactive) | 6.73 µM (inactive) | 4.85 µM (inactive) | 2.92 µM (inactive) | 31.6 µM (inactive) | 14.6 µM (inactive) | 37.2 µM (inactive) | 3.24 µM (inactive)
CCC(C(C)N1CC(=O)NC(=O)C1)N1CC(=O)NC(=O)C1 (stereo not drawn) | 5.65 µM (inactive) | 4.08 µM (inactive) | > 100 µM (inactive) |  | > 100 µM (inactive) | 4.93 µM (inactive) | > 61.9 µM (inactive) |  | > 100 µM (inactive) | > 100 µM (inactive) | > 100 µM (inactive) | 6.27 µM (inactive) | 7.01 µM (inactive) | 97.5 µM (inactive) | > 100 µM (inactive) | > 100 µM (inactive) | 62.1 µM (inactive) | 0.506 µM (active) | > 100 µM (inactive) | 
O=C(O)C1Cc2c([nH]c3ccccc23)C=N1 (stereo not drawn) | > 100 µM (inactive) | > 100 µM (inactive) | > 100 µM (inactive) |  | > 100 µM (inactive) | > 100 µM (inactive) | > 100 µM (inactive) |  | > 100 µM (inactive) | > 100 µM (inactive) | > 100 µM (inactive) | > 100 µM (inactive) | > 100 µM (inactive) | > 100 µM (inactive) | > 100 µM (inactive) | > 74.1 µM (inactive) | > 100 µM (inactive) | > 100 µM (inactive) | > 100 µM (inactive) | 
CCN(CC)C(=S)N/N=C(\C)c1cccc(C)n1 | 0.0276 µM (active) | < 0.01 µM (active) | 0.259 µM (active) | 0.0184 µM (active) | 0.315 µM (active) | < 0.01 µM (active) | < 0.0431 µM (active) |  | 1.57 µM (inactive) | 0.287 µM (active) | < 0.01 µM (active) | 0.292 µM (active) | 0.102 µM (active) | < 0.01 µM (active) | < 0.01 µM (active) | 1.49 µM (inactive) | < 0.01 µM (active) | < 0.01 µM (active) | 0.571 µM (active) | 0.832 µM (active)
NC(=O)CC(/N=C1\C(=O)OC(C(O)CO)\C1=N/C(CC(N)=O)C(=O)O)C(=O)O (stereo not drawn) | > 100 µM (inactive) | > 100 µM (inactive) | > 100 µM (inactive) | > 100 µM (inactive) | > 100 µM (inactive) | > 100 µM (inactive) | > 100 µM (inactive) | > 100 µM (inactive) | > 100 µM (inactive) | > 100 µM (inactive) | > 100 µM (inactive) | > 100 µM (inactive) | > 100 µM (inactive) | > 100 µM (inactive) |  | > 100 µM (inactive) | > 100 µM (inactive) | > 100 µM (inactive) | > 100 µM (inactive) | > 100 µM (inactive)
Cc1oc(N)c(S(=O)(=O)c2cc3ccccc3[n+]([O-])c2N)c1C | > 100 µM (inactive) | > 100 µM (inactive) | > 100 µM (inactive) | > 100 µM (inactive) | > 100 µM (inactive) |  | > 100 µM (inactive) | > 100 µM (inactive) | > 100 µM (inactive) | > 100 µM (inactive) | > 100 µM (inactive) | > 100 µM (inactive) | > 100 µM (inactive) | > 100 µM (inactive) | > 100 µM (inactive) | > 100 µM (inactive) | > 100 µM (inactive) | > 100 µM (inactive) | > 100 µM (inactive) | > 100 µM (inactive)
O=C(O)C1C(Br)(c2ccccc2)C1(Br)c1ccccc1 (stereo not drawn) | 17.6 µM (inactive) | 22 µM (inactive) | 17.9 µM (inactive) | 14.3 µM (inactive) | 37.9 µM (inactive) |  | 27.6 µM (inactive) | 32.3 µM (inactive) | 27.5 µM (inactive) | 23 µM (inactive) | 17.8 µM (inactive) | 34.4 µM (inactive) | 37 µM (inactive) | 11.8 µM (inactive) | 50.4 µM (inactive) | 42.7 µM (inactive) | 20.7 µM (inactive) | 13.4 µM (inactive) | 27.4 µM (inactive) | 33.7 µM (inactive)
S=C(NCc1ccccn1)N/N=C/c1ccccn1 | < 0.01 µM (active) | < 0.01 µM (active) | < 0.0181 µM (active) | < 0.01 µM (active) | 0.0482 µM (active) | < 0.01 µM (active) |  | < 0.01 µM (active) |  | < 0.032 µM (active) | < 0.01 µM (active) | 0.0724 µM (active) | < 0.01 µM (active) | < 0.01 µM (active) | < 0.01 µM (active) | < 0.0206 µM (active) |  | < 0.01 µM (active) | 0.726 µM (active) | 0.0195 µM (active)
